Assay: MR imaging of uptake, retention and clearance in CCI mouse model of TBI
Assay type: in vivo, mice
Method: 8-10 Week old C57/B6 mice were induced with 4% isoflurane gas via inhalation and maintained at 1.5-2%, then placed upon a warm heating pad set to 100° F. to maintain body temperature. Prior to surgery, hair on the top of the skull was trimmed and epilated via shears and Nair (Church and Dwight Co., Inc., Princeton, NJ). Lidocaine (0.05 mL at a 5 mg/mL) and bupivacaine (0.05 mL at 0.3 mg/mL) were injected subcutaneously under the scalp. After 5 min to allow anesthetic to absorb, a midline incision was made in the skin from lambda to bregma. Fascia and skin were retracted and a small hole drilled using a high speed surgical drill over the left frontoparietal cortex (3 mm anterior and 2 mm left from lambda), and a 3 mm circular cranial window created using rongeurs. A pneumatically-operated controlled cortical impactor (CCI) with a 3 mm convex tip was used to impact the brain normal to the dura surface at a depth of 1 mm at 6 m/s and remained in the brain for 150 ms. Incisions were closed using skin glue and mice given an intraperitoneal injection of buprenorphine (0.1 mg/kg). Mice were monitored under a heat lamp until awake.
Three consecutive T1w images were acquired with RARE (rapid acquisition with refocused echoes) pulse sequence: TR/TE=667.5/4.5 ms, matrix=256×128, field of view (FOV)=25.6×25.6 mm, number of averages (NA)=1, 15 slices and 1 mm slice thickness. […] A series of T1w images were acquired using a fast low angle shot (FLASH) pulse sequence. There were three—four consecutive T1w sequences acquired both pre and post injection—one set of three pre injection acquisitions and then three sets of four post injection acquisitions with an additional set post the following day (4 post imaging total). These images utilized a 3 dimensional (D) FLASH sequence: TR/TE=20/3.87 ms, flip angle=20°, matrix=160×160×30, FOV=25.6×25.6 mm, NA=2, 30 slices and 3D slab of 15 mm. For the first group of mice, T2w images (TR/TE=5500/50 ms) were selected from RARE pulse sequence with (TR=214.3, 500, 1000, 1500, 3000 and 5500 ms and TE=10, 30, 50, 70 and 90 ms, matrix=256×128, FOV=25.6×25.6 mm, NA=1, 2 slices and 1 mm slice thickness. For the second group of mice, T2w images (TR/TE=4000/37.7 ms) were selected from multi-slice and multi-echo imaging conducted with TR/TE=4000/6.3−75.4 ms (12 echoes with 6.3 ms spacing), matrix=256×128, NA=1, 15 slices and 1 mm slice thickness.

| Molecule | accumulation / contrast enhancement in damaged brain (T1 contrast) (injected 3 hrs post-CCI) | blood half-life (injected post-CCI, intravascular MR signal) [h] | accumulation / contrast enhancement in damaged brain (T1 contrast) (mouse, in vivo) | accumulation in damaged brain (T1 contrast) (mouse, in vivo) | blood (circulation) half-life (mouse, in vivo) | half-life in damaged brain (resident half-life) (mouse, in vivo) | half-life in the ventricles (mouse, in vivo) [h] | retention in damaged brain (mouse, in vivo) | retention within damaged brain (mouse, in vivo) |
| --- | --- | --- | --- | --- | --- | --- | --- | --- | --- |
| O=C([O-])CN(CCN(CC(=O)[O-])CC(=O)O)CCN(CC(=O)[O-])CC(=O)O.[Gd+3] [Gd-DTPA, reference compound] | displayed contrast enhancement in damaged brain | 0.6 |  |  |  |  |  |  |  |
| poly(MEMcoO950coMNHS) [ORP] |  |  | showed accumulation in damaged brain after 18 hrs | accumulates in the damaged region of brain | about 1.1 hrs | greater than 14 hrs | ~40 | at least 18 hrs | at least 24 hrs |

Reference: patent US12329773B2, “Oxygen reactive polymers for treatment of traumatic brain injury” (University of Washington, priority 2015, dated 2025)
